In assay [1] the target is T1, Type-1 angiotensin II receptor (Cavia porcellus, UniProt Q9WV26).
T1 sequence (Q9WV26 whole entry): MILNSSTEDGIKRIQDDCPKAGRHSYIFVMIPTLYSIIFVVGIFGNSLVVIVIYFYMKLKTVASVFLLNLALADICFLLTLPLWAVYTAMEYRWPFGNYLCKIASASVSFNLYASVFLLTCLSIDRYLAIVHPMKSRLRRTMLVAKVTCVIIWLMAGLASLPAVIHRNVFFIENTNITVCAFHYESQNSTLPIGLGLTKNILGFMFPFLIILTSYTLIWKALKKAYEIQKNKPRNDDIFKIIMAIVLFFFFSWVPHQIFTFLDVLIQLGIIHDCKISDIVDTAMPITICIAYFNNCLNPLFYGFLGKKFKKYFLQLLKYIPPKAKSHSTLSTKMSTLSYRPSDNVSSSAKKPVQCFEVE
As to the kind of experiment: Compound was tested for in vitro inhibition of specific binding of [I-125]AII to AT1 receptor in guinea pig adrenal membrane preparation. The class given is cell membranes.

For a further assay, the system named is Rattus norvegicus. As to the kind of experiment: Tested in vivo for inhibition of pressor response induced by infusion of AII in conscious normotensive rats, when given intravenously. The assay is classed as functional, organism-based.
The target in assay [2] is T1, Type-1 angiotensin II receptor. As to the kind of experiment: Compound was tested for in vitro inhibition of specific binding of [I-125]AII to Angiotensin II receptor, type 1 in guinea pig adrenal membrane preparation. The assay is classed as cell membranes.

By IC50 is commonly meant the concentration that inhibits the measured activity by half. `CCc1cc(OCc2ccc(-c3ccccc3-c3nn[nH]n3)c(Cl)c2)c2c(n1)CCCC2` showed an IC50 in assay [1] of 7 nM. The compound also had an EC50 in the assay with Rattus norvegicus of 0.52 mg/kg.

In assay [2], `CCc1cc(OCc2ccc(-c3ccccc3-c3nn[nH]n3)cc2F)c2c(n1)CCCC2` displayed an IC50 of 9 nM. In the assay with Rattus norvegicus, this compound had an EC50 of 0.22 mg/kg.

The compound `CCc1cc(OCc2ccc(-c3ccccc3-c3nn[nH]n3)cc2)c2c(n1)CCCC2` returned an IC50 in assay [2] of 5 nM. The EC50 in the assay on Rattus norvegicus turned out to be 0.39 mg/kg.

As for `CCc1cc(OCc2ccc(-c3ccc(Cl)cc3-c3nnn[nH]3)cc2)c2c(n1)CCCC2`, the IC50 in assay [2] turned out to be 93 nM.

In assay [2], `CCc1cc(OCc2ccc(-c3cc(OC)ccc3-c3nn[nH]n3)cc2)c2c(n1)CCCC2` returned an IC50 of 67 nM.

For `CCc1cc(OCc2ccc(-c3c(C)cccc3-c3nn[nH]n3)cc2)c2c(n1)CCCC2`, the IC50 in assay [2] is 29 nM. The same compound gave an EC50 with Rattus norvegicus of 0.48 mg/kg.

In the case of `CCc1cc(OCc2ccc(-c3ccccc3-c3nn[nH]n3)c(C(=O)OC)c2)c2c(n1)CCCC2`, the IC50 in assay [1] is 20 nM. Further, the EC50 with Rattus norvegicus amounted to 0.11 mg/kg.

As for `CCc1cc(OCc2ccc(-c3ccc(OC)cc3-c3nnn[nH]3)cc2)c2c(n1)CCCC2`, the 50% inhibitory concentration (IC50) in assay [2] amounted to 140 nM.

In turn, `CCc1cc(OCc2ccc(-c3ccccc3-c3nn[nH]n3)c(OC)c2)c2c(n1)CCCC2` came in with an IC50 in assay [1] of 8 nM. The compound also came in with an EC50 in the assay on Rattus norvegicus of 0.39 mg/kg.

`CCc1cc(OCc2ccc(-c3ccccc3-c3nn[nH]n3)c(C(C)=O)c2)c2c(n1)CCCC2`: the IC50 in assay [1] came to 6 nM. Further, in the assay with Rattus norvegicus, the EC50 amounted to 0.1 mg/kg.

The compound `CCc1cc(OCc2ccc(-c3ccc(C)cc3-c3nn[nH]n3)cc2)c2c(n1)CCCC2` gave a half-inhibitory concentration (IC50) in assay [2] of 54 nM.

`CCc1cc(OCc2ccc(-c3ccccc3-c3nn[nH]n3)c(C(=O)O)c2)c2c(n1)CCCC2`: in assay [1], the IC50 turned out to be 27 nM. Further, the EC50 in the assay on Rattus norvegicus amounted to 0.24 mg/kg.

`CCCCc1nc(Cl)c(CO)n1Cc1ccc(-c2ccccc2-c2nnn[nH]2)cc1` [LOSARTAN]: in the assay on Rattus norvegicus, the EC50 worked out at 0.65 mg/kg.

For the origin of these results see ChEMBL document CHEMBL1128013, “The synthesis and biological activity of tetrahydroquinoline angiotensin II antagonists containing a substituted biphenyltetrazole group” (Bioorg Med Chem Lett, 1994).
